Reference: patent US6103888A, “Mammalian cationic proteins having lipopolysaccharide binding and anti-coagulant activity” (priority 1999, dated 2000)

Legend:
[1] = tested on: Salmonella minnesota ReLPS sensitized sheep erythrocytes; assay: LPS hemagglutination assay (MAC); type: binding
Description: For hemagglutination assays, erythrocytes were sensitized with LPS as follows. One ml of 1% erythrocyte suspension (human 0 type, C3H/HeN mouse or sheep) was mixed with 0.2 ml of LPS solution and incubated at 37° C. for 30 min, followed by washing with phosphate buffered saline (PBS), and then the concentration of suspension was adjusted to 1.0%. In the case of S-LPS, the solution was heated at 100° C. for 1 hour before sensitization of erythrocytes. […] Activity of CAP was expressed as a minimum agglutinating concentration (MAC) of CAP. According to the method of Kirikae et al. (1986) Microbiol. Immunol. 30:269-274, 50 μl of 2-fold serial dilution of Re-LPS was added to 50 μl of 1.0% rabbit erythrocyte suspension, and incubated at 37° C. for 3 hour. Minimum agglutinating concentration of Re-LPS was expressed as 1 HA unit.

[2] = biological target: prothrombin (factor II) (Homo sapiens, UniProt P00734); assay: Prothrombin activation by Echis Carinatus venom (ECV); type: biochemical
Description: Prothrombin activation by Echis Carinatus venom (ECV). A reaction mixture of prothrombin (factor II) (0.1 unit/ml, 200 μl), ECV (1 unit/ml, 200 μl), various concentration of peptide (70 μl), 50 μl of 25 mM-CaCl2 and 180 μl of Tris buffer was incubated at 37° C. for 10 min. To 300 μl of the reaction mixture, 60 μl of 4 mM-thrombin substrate and 240 μl of buffer was added and further incubated for 15 min.

[3] = tested on: Human plasma; assay: Prothrombin time (PT); type: biochemical
Description: Prothrombin time (PT). Human plasma (100 μl) was incubated with 100 μl of each peptide at 37° C. for 3 min., then 100 μl of tissue factor (250 μg/ml) CaCl2 was added and clotting time was measured.

[4] = tested on: Salmonella minnesota Re; assay: Antibacterial CFU assay
[5] = tested on: Salmonella typhimurium; assay: Antibacterial CFU assay; conditions: for anti-bacterial activity (CFU), in words: Salmonella typhimurium, smooth strain; for effect on CFU of S. typhimurium: high concentrations alone and in various combinations
[6] = tested on: thioglycollate-stimulated murine peritoneal macrophages; assay: LPS-induced tissue factor generation by macrophages (clotting assay); type: cell-based; conditions: peptides 1 μg/ml incubated with S. minnesota smooth LPS 5 minutes; 6 hr
Description: Tissue factor assay. Salmonella minnesota smooth LPS was incubated with each peptide (1 μg/ml) for 5 min., then the mixture was added to peritoneal murine macrophages obtained 4 days after thioglycollate stimulation. Cells were cultured for 6 hours prior to assay of tissue factor by clotting assay.
Various concentrations of Salmonella minnesota smooth LPS were incubated with each peptide (197 (RNIP), 36-1, 32-1, and 50-2) at 37° C. for 5 minutes prior to mixing with thioglycollate-stimulated murine peritoneal macrophages. Production of tissue factor after 6 hr. was measured by clotting assay. […] In the absence of LPS no tissue factor is synthesized by these cells.

[7] = tested on: RAW 264.7 cells; assay: LPS- or IFNγ-induced reactive nitrogen intermediate (RNI) production, Griess nitrite assay; type: cell-based, murine; conditions: macrophages / RAW 264.7 cells
Description: From the sequence of the CAP18 cDNA, it was apparent that the putative N-terminal peptide of CAP18 was in fact an internal fragment of the CAP18 protein. We therefore tried to reconfirm the original protein sequence. Neutrophil-derived heparin bound cationic proteins were prepared as described above and applied to a C18 reverse phase HPLC (FIG. 1). We sequenced the major peaks. Peaks at fractions 14.5 and 15.2 correspond to defensins MCP1 and MCP2 (Territo et al. (1989) J. Clin. Invest. 84:2017-2019), respectively. Fraction 25.8 is macrophage related protein 14 (MRP14) (Odink et al. (1987) Nature 330:80-82). The fraction at 20.3 minutes corresponds to a fragment of CAP18 of approximately 4-5 kD. […] The murine macrophage cell line RAW 264.7 (obtained from ATCC) and thioglycollate-elicited murine peritoneal exudate cells are used to produce RNI. Cells are cultured at 1×10^6 /ml. in RPMI-1640 +2.5% FCS in 24 well plates in the presence or absence of different concentrations of LPS or murine rlFNγ. After 24 hr. incubation at 37° C., the cell free supernatant is collected and tested for the presence of RNI. Accumulation of nitrite in the medium is measured by a calorimetric assay based on the Griess reaction (Green et al. (1982) Anal. Biochem. 126:11) using sodium nitrite as standards. Sample (50 μl) is mixed with 50 μl of Griess reagent (1% sulfanilamide, 0.1% naphthalene diamine dihydrochloride, 2.5% H3 PO4) and after 10 min. at room temperature absorbance is read at 570 nm.

[8] = biological target: prothrombin (factor II)
[9] = tested on: tissue factor generation; assay: Effect of CAP-37 on LPS-induced tissue factor generation; type: cell-based; conditions: for Tissue factor units / Tissue factor units, value in parentheses (ratio to control): CAP-37 15 HA
Description: Table 6 presents a comparison of the effect of RNIP, CAP18, and defensins HP-1 and HP-2 (Territo et al. (1989) J. Clin. Invest. 84:2017-2019) on LPS-induced tissue factor generation. Tissue factor assays were performed as follows. Mouse peritoneal cells were elicted with an intraperitoneal injection of thioglycolate medium and harvested 5-days later by irrigation with pyrogen-free saline. The cells were washed with RPMI 1640 medium, counted and resuspended at a concentration of 1.5-2.0×10^6 /ml in serum-free RPMI medium containing glutamine (0.29 mg/ml), penicillin (50 units/ml) and streptomycin ([…]). Adherent cells were prepared by incubating 10 ml of a cell suspension (in RPMI 1640 media in sterile culture bottle (Nunclon, 50 ml, Inter Med) for 60 min. at 37° C. in a 5% CO2 atmosphere. The plastic adherent cells were recovered by scraping of the bottle with a sterile rubber policeman. The adherent cells were then washed twice with RPMI media, resuspended in serum-free medium (1×10^6 /ml) in culture tube (Nunc cryotube, Inter Med), and stimulated with graded doses of LPS for 6 hr. at 37° C. in a 5% CO2. The cell suspension was centrifuged and cell pellet was frozen at -80° C. until clotting assays were run.
Veronal buffered saline (VBS) was added to the cell pellet, lysed by 3 cycles of freeze/thaw and sonicated for 10 sec with a hand-held sonicator microbe (Handy Sonic, model UR-20P, Tomy Seiko LTD, Tokyo). Tissue factor activity was tested in modified unactivated partial thromboplastin time (7). One tenth ml of cell lysate (1×10^6 /ml) was preincubated with mouse plasma at 37° C. for 3 min. Then 0.1 ml of 25 mM-CaCl2 which contains phospholipid was added to the mixture and clotting time was measured using a fibrometer (Bio Quest Division, Becton Dickinson, Cokeysville, USA). A standard curve obtained from serial two-fold dilutions of rabbit brain thromboplastic (Simplastin, Ono Pharmaceutical Co.) was used to transpose tissue factor activity into arbitrary tissue factor units (1 μg/ml) suspension of rabbit brain was assigned a value of 1,000 units).
.dagger.LPS was incubated with CAP37 at 37° C. for 2 hours, and th
mixture was added to cells, then cultured for 6 hours.

## 21-1: synthetic rabbit RNIP fragment, amino acids 135-151 of SEQ ID NO:4 (GLRKRLRKFRNKIKEKL) [Peptide 21-1]
[1]
  Hemagglutination [MAC], minimum agglutinating concentration: > 125 µg/mL

## 32-1: synthetic rabbit RNIP fragment, amino acids 135-143 of SEQ ID NO:4 (GLRKRLRKF) [Peptide 32-1]
[2]
  inhibition of Echis carinatus venom activation of purified factor II to IIa (in words): inactive
[1]
  Hemagglutination [MAC], minimum agglutinating concentration: > 125 µg/mL
[3]
  inhibition of the prothrombin time (PT), in words: inactive
[4]
  anti-bacterial activity (CFU), in words: not active
[5]; S. typhimurium pretreated with peptide 32-1, then peptide 197
  effect of pretreatment on bacterial killing by peptide 197: no inhibition or augmentation
[5]
  anti-bacterial activity (CFU), in words: not active
  effect on CFU of S. typhimurium: No effect
[6]
  inhibition of LPS induced tissue factor (in words): fail to inhibit

## 34-1: synthetic rabbit RNIP fragment, amino acids 140-166 of SEQ ID NO:4 (LRKFRNKIKEKLKKIGQKIQGLLPKLA) [Peptide 34-1]
[1]
  Hemagglutination [MAC], minimum agglutinating concentration: > 125 µg/mL

## 50-1: synthetic rabbit RNIP fragment, amino acids 147-171 of SEQ ID NO:4 (IKEKLKKIGQKIQGLLPKLAPRTDY) [Peptide 50-1]
[1]
  Hemagglutination [MAC], minimum agglutinating concentration: > 125 µg/mL

## 50-2: synthetic rabbit RNIP fragment, amino acids 147-171 of SEQ ID NO:4 (IKEKLKKIGQKIQGLLPKLAPRTDY) [Peptide 50-2]
[2]
  inhibition of Echis carinatus venom activation of purified factor II to IIa (in words): inactive
[1]
  Hemagglutination [MAC], minimum agglutinating concentration: > 125 µg/mL
[3]
  inhibition of the prothrombin time (PT), in words: inactive
[4]
  anti-bacterial activity (CFU), in words: not active
[5]
  anti-bacterial activity (CFU), in words: not active
  effect on CFU of S. typhimurium: No effect
[6]
  inhibition of LPS induced tissue factor (in words): fail to inhibit

## 52-1: synthetic rabbit RNIP fragment, amino acids 143-169 of SEQ ID NO:4 (FRNKIKEKLKKIGQKIQGLLPKLAPRT) [Peptide 52-1]
[1]
  Hemagglutination [MAC], minimum agglutinating concentration: > 125 µg/mL

## 52-2: synthetic rabbit RNIP fragment, amino acids 143-170 of SEQ ID NO:4 (FRNKIKEKLKKIGQKIQGLLPKLAPRTD) [Peptide 52-2]
[1]
  Hemagglutination [MAC], minimum agglutinating concentration: > 125 µg/mL

## 52-3: synthetic rabbit RNIP fragment, printed as amino acids 132-171 of SEQ ID NO:4 (EPTGLRKRLRKFRNKIKEKLKKIGQKIQGLLPKLAPRTDY) [Peptide 52-3]
[1]
  Hemagglutination [MAC], minimum agglutinating concentration: > 125 µg/mL

## 54-1: synthetic rabbit RNIP fragment, amino acids 139-170 of SEQ ID NO:4 (RLRKFRNKIKEKLKKIGQKIQGLLPKLAPRTD) [Peptide 54-1]
[1]
  Hemagglutination [MAC], minimum agglutinating concentration: > 125 µg/mL

## 54-2: synthetic rabbit RNIP fragment, amino acids 139-171 of SEQ ID NO:4 (RLRKFRNKIKEKLKKIGQKIQGLLPKLAPRTDY) [Peptide 54-2]
[1]
  Hemagglutination [MAC], minimum agglutinating concentration: > 125 µg/mL

## 187: synthetic rabbit RNIP fragment, amino acids 151-171 of SEQ ID NO:4 (LKKIGQKIQGLLPKLAPRTDY) [Peptide 187]
[1]
  Hemagglutination [MAC], minimum agglutinating concentration: > 125 µg/mL
[7]
  inhibition of LPS-induced RNI production (in words): inactive

## polymyxin B [reference compound]
[7]
  inhibition of LPS-induced RNI production (in words): inhibition

## GLRKRLRKFRNKIKEKLKKIGQKIQGLLPKLAPRTDY [synthetic rabbit RNIP peptide 197]
[8]
  IC50, factor II activation by Xa: 50 nM

## GLRKRLRKFRNKIKEKLKKIGQKIQGLLPKLA [synthetic rabbit RNIP peptide 36-1]
[8]
  IC50, factor II activation by Xa: < 30 nM

B1: CAP-37: another cationic peptide, azurocidin (CAP37) (Morgan et al.) (protein, UniProt P20160 27-248, looked up)
Azurocidin: IVGGRKARPRQFPFLASIQNQGRHFCGGALIHARFVMTAASCFQSQNPGVSTVVLGAYDLRRRERQSRQTFSISSMSENGYDPQQNLNDLMLLQLDREANLTSSVTILPLPLQNATVEAGTRCQVAGWGSQRSGGRLSRFPRFVNVTVTPEDQCRPNNVCTGVLTRRGGICNGDGGTPLVCEGLAHGVASFSLGPCGRGPDFFTRVALFRDWIDGVLNNPGP
[9]
  inhibition of tissue factor generation (in words): unable to inhibit tissue factor generation
[9]; LPS 0.1 μg/ml
  Tissue factor units: 383 ± 307 units /1 × 10^5 cells
  Tissue factor units, value in parentheses (ratio to control): 2.3
[9]; LPS 1.0 μg/ml
  Tissue factor units: 648 ± 343 units /1 × 10^5 cells
  Tissue factor units, value in parentheses (ratio to control): 3.9
[9]; no LPS
  Tissue factor units: 183 ± 67 units /1 × 10^5 cells
  Tissue factor units, value in parentheses (ratio to control): 1.1
